Results taken from patent US9556228B2 (Universitaet Leipzig, priority 2011, dated 2017).
≈ marks a conversion by molar mass, not a printed value. Peptide text beside a SMILES is read from it.

Legend:
Assay type in all cases: cell-based
Escherichia coli UB 1005 = test: Minimum inhibitory concentration (MIC), broth microdilution; details: for MIC E. coli UB1005: 1/8 MHB, Table 4; for Improvement over Native Sequence (SEQ No. 2) E. coli UB1005: fold, from MIC in 1/8 MHB
Experimental: (§1) The minimum inhibitory concentrations (MIC) of the peptides were determined in a double assay of triplicates using a positive control sample (gentamycin) and a negative control sample (0.9% NaCl solution), according to a modified protocol from Wiegand et al. (Wiegand, 2008).
(§2) For this purpose, the peptides were dissolved in water and were diluted in a double dilution series with 1/8 MH (eight-fold diluted Mueller-Hinton-Medium—2.6 g/L, Merck) in sterile 96-well, plates (Greiner Bio-One GmbH) in twelve dilution steps from 128 μg/mL to 62.5 ng/mL. Overnight cultures were adjusted using ⅛ MHB to approximately 1.5×10^7 colony forming units per mL. Of these, 50 μL of peptide solution per well was mixed with 50 μL bacteria solution each to obtain an initial concentration of […] bacteria per well. After 20 hours of incubation at 37′C, the absorption was determined at 595 nm (microplate reader, Wallac Victor3, Perkin Elmer). The minimum inhibitory concentration was identified as the lowest peptide concentration at which no bacterial growth could be detected.
(§3) In the experiment, the antibacterial activity of the peptides according to the invention in relation to the following bacterial strains was analyzed: Pseudomonas aeruginosa PAO1 (wt strain), Pseudomonas aeruginosa DSM 9644, Staphylococcus aureus DSM 1104/ATCC 25923, Staphylococcus aureus ATCC 6247, Escherichia coli UB 1005 (F—, nalA37, metB1) and Escherichia coli ATCC25922.

[1] = tested on: Staphylococcus aureus DSM 1104/ATCC 25923; details: for MIC S. aureus ATCC 25923: DSM 1104; for Improvement over Native Sequence (SEQ No. 2) S. aureus ATCC 25923: fold, from MIC in 1/8 MHB
Experimental: as §1, §2, §3

[2] = tested on: Pseudomonas aeruginosa PAO1 (wt strain); details: for Improvement over Native Sequence (SEQ No. 2) P. aeruginosa PAO1 wt: fold, from MIC in 1/8 MHB
Experimental: as §1, §2, §3

Compound	MIC E. coli UB1005 (Escherichia coli UB 1005) [µg/mL]	Improvement over Native Sequence (SEQ No. 2) E. coli UB1005 (Escherichia coli UB 1005)	MIC S. aureus ATCC 25923 [1] [µg/mL]	Improvement over Native Sequence (SEQ No. 2) S. aureus ATCC 25923 [1]	MIC P. aeruginosa PAO1 wt [2] [µg/mL]	Improvement over Native Sequence (SEQ No. 2) P. aeruginosa PAO1 wt [2]
CC[C@H](C)[C@H](NC(=O)[C@H](Cc1ccc(O)cc1)NC(=O)[C@@H](NC(=O)[C@@H]1CCCN1C(=O)[C@H](CCCNC(=N)N)NC(=O)[C@H](CC(N)=O)NC(=O)[C@H](CC(N)=O)NC(=O)CN)C(C)C)C(=O)N1CCC[C@H]1C(=O)N[C@@H](CCC(N)=O)C(=O)N1CCC[C@H]1C(=O)N[C@@H](CCCNC(=N)N)C(=O)N[C@@H](CCCNC(=N)N)C(=O)N1CCC[C@H]1C(=O)N[C@@H](Cc1c[nH]cn1)C(=O)N1CCC[C@H]1C(=O)N[C@@H](CCCNC(=N)N)C(=O)N[C@@H](CC(C)C)C(N)=O [compound 59] (H-GNNRPVYIPQPRRPHPRL-NH2; N-terminus assumed)	10 (≈ 4.62 µM)	1	31 (≈ 14.3 µM)	8	125 (≈ 57.7 µM)	4
CC[C@H](C)[C@H](NC(=O)[C@H](Cc1ccc(O)cc1)NC(=O)[C@@H](NC(=O)[C@@H]1CCCN1C(=O)[C@H](CCCNC(=N)N)NC(=O)[C@H](CC(N)=O)NC(=O)[C@H](CC(N)=O)NC(=O)CN)C(C)C)C(=O)N1CCC[C@H]1C(=O)N[C@@H](CCC(N)=O)C(=O)N1CCC[C@H]1C(=O)N[C@@H](CCCNC(=N)N)C(=O)N1CCC[C@H]1C(=O)N1CCC[C@H]1C(=O)N[C@@H](Cc1c[nH]cn1)C(=O)N1CCC[C@H]1C(=O)N[C@@H](CCCNC(=N)N)C(=O)N[C@@H](CCCNC(=N)N)C(N)=O [compound 62] (H-GNNRPVYIPQPRPPHPRR-NH2; N-terminus assumed)	1.25 to 2.5	2-4	125 (≈ 58.1 µM)	2	125 (≈ 58.1 µM)	4
CC[C@H](C)[C@H](NC(=O)[C@H](Cc1ccc(O)cc1)NC(=O)[C@@H](NC(=O)[C@@H]1CCCN1C(=O)[C@H](CCCNC(=N)N)NC(=O)[C@H](CC(N)=O)NC(=O)[C@H](Cc1c[nH]c2ccccc12)NC(=O)CN)C(C)C)C(=O)N1CCC[C@H]1C(=O)N[C@@H](CCCNC(=N)N)C(=O)N1CCC[C@H]1C(=O)N[C@@H](CCCNC(=N)N)C(=O)N1CCC[C@H]1C(=O)N1CCC[C@H]1C(=O)N[C@@H](Cc1c[nH]cn1)C(=O)N1CCC[C@H]1C(=O)N[C@@H](CCCNC(=N)N)C(=O)N[C@@H](CC(C)C)C(N)=O [compound 63] (H-GWNRPVYIPRPRPPHPRL-NH2; N-terminus assumed)	–	8	16 (≈ 7.25 µM)	16	16 to 32	16-32
CC[C@H](C)[C@H](NC(=O)[C@H](Cc1ccc(O)cc1)NC(=O)[C@@H](NC(=O)[C@@H]1CCCN1C(=O)[C@H](CCCNC(=N)N)NC(=O)[C@H](CC(N)=O)NC(=O)[C@H](Cc1c[nH]c2ccccc12)NC(=O)CN)C(C)C)C(=O)N1CCC[C@H]1C(=O)N[C@@H](CCC(N)=O)C(=O)N1CCC[C@H]1C(=O)N[C@@H](CCCNC(=N)N)C(=O)N1CCC[C@H]1C(=O)N1CCC[C@H]1C(=O)N[C@@H](Cc1c[nH]cn1)C(=O)N1CCC[C@H]1C(=O)N[C@@H](CCCNC(=N)N)C(=O)N[C@@H](CC(C)C)C(N)=O [compound 54] (H-GWNRPVYIPQPRPPHPRL-NH2; N-terminus assumed)	1.25 (≈ 0.574 µM)	4	63 (≈ 28.9 µM)	4	64 (≈ 29.4 µM)	8
CC[C@H](C)[C@H](NC(=O)[C@H](Cc1ccc(O)cc1)NC(=O)[C@@H](NC(=O)[C@H](CCCNC(=N)N)NC(=O)[C@H](CCCNC(=N)N)NC(=O)[C@H](CC(N)=O)NC(=O)[C@H](CC(N)=O)NC(=O)CN)C(C)C)C(=O)N1CCC[C@H]1C(=O)N[C@@H](CCC(N)=O)C(=O)N1CCC[C@H]1C(=O)N[C@@H](CCCNC(=N)N)C(=O)N1CCC[C@H]1C(=O)N1CCC[C@H]1C(=O)N[C@@H](Cc1c[nH]cn1)C(=O)N1CCC[C@H]1C(=O)N[C@@H](CCCNC(=N)N)C(=O)N[C@@H](CC(C)C)C(N)=O [compound 57] (H-GNNRRVYIPQPRPPHPRL-NH2; N-terminus assumed)	5 (≈ 2.31 µM)	1	32 (≈ 14.8 µM)	8	64 (≈ 29.5 µM)	8
CC[C@H](C)[C@H](NC(=O)[C@H](Cc1ccc(O)cc1)NC(=O)[C@@H](NC(=O)[C@H](CS)NC(=O)[C@H](CCCNC(=N)N)NC(=O)[C@H](CC(N)=O)NC(=O)[C@H](CC(N)=O)NC(=O)CN)C(C)C)C(=O)N1CCC[C@H]1C(=O)N[C@@H](CCC(N)=O)C(=O)N1CCC[C@H]1C(=O)N[C@@H](CCCNC(=N)N)C(=O)N1CCC[C@H]1C(=O)N1CCC[C@H]1C(=O)N[C@@H](Cc1c[nH]cn1)C(=O)N1CCC[C@H]1C(=O)N[C@@H](CCCNC(=N)N)C(=O)N[C@@H](CC(C)C)C(N)=O [compound 56] (H-GNNRCVYIPQPRPPHPRL-NH2; N-terminus assumed)	10 (≈ 4.73 µM)	1	31 (≈ 14.7 µM)	8	125 (≈ 59.1 µM)	4
CC[C@H](C)[C@H](NC(=O)[C@H](Cc1ccc(O)cc1)NC(=O)[C@@H](NC(=O)[C@@H]1CCCN1C(=O)[C@H](CCCNC(=N)N)NC(=O)[C@H](CC(N)=O)NC(=O)[C@H](CC(N)=O)NC(=O)CN)C(C)C)C(=O)N1CCC[C@H]1C(=O)N[C@@H](CCC(N)=O)C(=O)N1CCC[C@H]1C(=O)N[C@@H](CCCNC(=N)N)C(=O)N1CCC[C@H]1C(=O)N1CCC[C@H]1C(=O)N[C@@H](Cc1c[nH]cn1)C(=O)N[C@@H](CS)C(=O)N[C@@H](CCCNC(=N)N)C(=O)N[C@@H](CC(C)C)C(N)=O [compound 61] (H-GNNRPVYIPQPRPPHCRL-NH2; N-terminus assumed)	–	0	32 (≈ 15.1 µM)	8	125 (≈ 59.1 µM)	4
CC(C)C[C@H](NC(=O)[C@H](CCCNC(=N)N)NC(=O)[C@@H]1CCCN1C(=O)[C@H](Cc1c[nH]cn1)NC(=O)[C@@H]1CCCN1C(=O)[C@@H]1CCCN1C(=O)[C@H](CCCNC(=N)N)NC(=O)[C@@H]1CCCN1C(=O)[C@H](CCC(N)=O)NC(=O)[C@@H]1CCCN1C(=O)[C@H](CCCNC(=N)N)NC(=O)[C@H](Cc1ccc(O)cc1)NC(=O)[C@@H](NC(=O)[C@@H]1CCCN1C(=O)[C@H](CCCNC(=N)N)NC(=O)[C@H](CC(N)=O)NC(=O)[C@H](CC(N)=O)NC(=O)CN)C(C)C)C(N)=O [compound 58] (H-GNNRPVYRPQPRPPHPRL-NH2; N-terminus assumed)	0.313 (≈ 0.146 µM)	16	63 (≈ 29.3 µM)	4	64 (≈ 29.8 µM)	8
CC[C@H](C)[C@H](NC(=O)[C@H](Cc1ccc(O)cc1)NC(=O)[C@@H](NC(=O)[C@@H]1CCCN1C(=O)[C@H](CCCNC(=N)N)NC(=O)[C@H](CC(N)=O)NC(=O)[C@H](CC(N)=O)NC(=O)CN)C(C)C)C(=O)N1CCC[C@H]1C(=O)N[C@@H](CCC(N)=O)C(=O)N1CCC[C@H]1C(=O)N[C@@H](CCCNC(=N)N)C(=O)N1CCC[C@H]1C(=O)N[C@@H](CS)C(=O)N[C@@H](Cc1c[nH]cn1)C(=O)N1CCC[C@H]1C(=O)N[C@@H](CCCNC(=N)N)C(=O)N[C@@H](CC(C)C)C(N)=O [compound 60] (H-GNNRPVYIPQPRPCHPRL-NH2; N-terminus assumed)	20 (≈ 9.46 µM)	0	16 (≈ 7.57 µM)	16	250 (≈ 118 µM)	2
CC[C@H](C)[C@H](NC(=O)[C@H](Cc1ccc(O)cc1)NC(=O)[C@@H](NC(=O)[C@@H]1CCCN1C(=O)[C@H](CC(=O)O)NC(=O)[C@H](CC(N)=O)NC(=O)[C@H](CC(N)=O)NC(=O)CN)C(C)C)C(=O)N1CCC[C@H]1C(=O)N[C@@H](CCC(N)=O)C(=O)N1CCC[C@H]1C(=O)N[C@@H](CCCNC(=N)N)C(=O)N1CCC[C@H]1C(=O)N1CCC[C@H]1C(=O)N[C@@H](Cc1c[nH]cn1)C(=O)N1CCC[C@H]1C(=O)N[C@@H](CCCNC(=N)N)C(=O)N[C@@H](CC(C)C)C(N)=O [compound 91] (H-GNNDPVYIPQPRPPHPRL-NH2; N-terminus assumed)	>19.4	<0.25	>60.5	–	121.0 (≈ 58.6 µM)	4
